According to the CheMixHub viscosity set:

Assay: xn = mol fraction of the nth substance listed

C1CCOC1 + O
Details | viscosity [mPa·s]
298 K, 101 kPa, x2 = 0.217 | 0.5842
298 K, 101 kPa, x2 = 0.284 | 0.6433
298 K, 101 kPa, x2 = 0.331 | 0.6715
298 K, 101 kPa, x2 = 0.3845 | 0.7352
298 K, 101 kPa, x2 = 0.4994 | 0.9349
298 K, 101 kPa, x2 = 0.6293 | 1.22
298 K, 101 kPa, x2 = 0.8001 | 1.681
298 K, 101 kPa, x2 = 0.8523 | 1.745
298 K, 101 kPa, x2 = 0.9073 | 1.658
298.15 K, 101 kPa, x1 = 0.02 | 1.157
298.15 K, 101 kPa, x1 = 0.05 | 1.464
298.15 K, 101 kPa, x1 = 0.07 | 1.62
298.15 K, 101 kPa, x1 = 0.1001 | 1.749
298.15 K, 101 kPa, x1 = 0.1199 | 1.79
298.15 K, 101 kPa, x1 = 0.1499 | 1.796
298.15 K, 101 kPa, x1 = 0.1699 | 1.783
298.15 K, 101 kPa, x1 = 0.2 | 1.723
298.15 K, 101 kPa, x1 = 0.2199 | 1.671
298.15 K, 101 kPa, x1 = 0.25 | 1.586
298.15 K, 101 kPa, x1 = 0.2701 | 1.538
298.15 K, 101 kPa, x1 = 0.3002 | 1.445
298.15 K, 101 kPa, x1 = 0.3499 | 1.313
298.15 K, 101 kPa, x1 = 0.3999 | 1.172
298.15 K, 101 kPa, x1 = 0.4499 | 1.039
298.15 K, 101 kPa, x1 = 0.5001 | 0.9437
298.15 K, 101 kPa, x1 = 0.5998 | 0.7744
298.15 K, 101 kPa, x1 = 0.7001 | 0.65
298.15 K, 101 kPa, x1 = 0.8001 | 0.5622
298.15 K, 101 kPa, x1 = 0.9 | 0.4979
298.15 K, 101 kPa, x2 = 0.31 | 0.6564
298.15 K, 101 kPa, x2 = 0.5 | 0.9237
298.15 K, 101 kPa, x2 = 0.63 | 1.224
298.15 K, 101 kPa, x2 = 0.68 | 1.399
298.15 K, 101 kPa, x2 = 0.73 | 1.49
298.15 K, 101 kPa, x2 = 0.77 | 1.582
298.15 K, 101 kPa, x2 = 0.8 | 1.678
298.15 K, 101 kPa, x2 = 0.83 | 1.701
298.15 K, 101 kPa, x2 = 0.86 | 1.732
298.15 K, 101 kPa, x2 = 0.9 | 1.68
298.15 K, 101 kPa, x2 = 0.94 | 1.49
298.15 K, 101 kPa, x2 = 0.97 | 1.202
298.15 K, 101.32 kPa, x1 = 0.0423 | 1.362
298.15 K, 101.32 kPa, x1 = 0.0812 | 1.647
298.15 K, 101.32 kPa, x1 = 0.1809 | 1.741
298.15 K, 101.32 kPa, x1 = 0.3559 | 1.285
298.15 K, 101.32 kPa, x1 = 0.5248 | 0.892
298.15 K, 101.32 kPa, x1 = 0.7342 | 0.638
298.15 K, 101.32 kPa, x1 = 0.8468 | 0.554
298.15 K, 101.32 kPa, x2 = 0.0008 | 0.47
298.15 K, 101.33 kPa, x2 = 0.111 | 0.515
298.15 K, 101.33 kPa, x2 = 0.197 | 0.565
298.15 K, 101.33 kPa, x2 = 0.3027 | 0.65
298.15 K, 101.33 kPa, x2 = 0.4036 | 0.763
298.15 K, 101.33 kPa, x2 = 0.5028 | 0.916
298.15 K, 101.33 kPa, x2 = 0.6047 | 1.129
298.15 K, 101.33 kPa, x2 = 0.7032 | 1.394
298.15 K, 101.33 kPa, x2 = 0.8017 | 1.651
298.15 K, 101.33 kPa, x2 = 0.9013 | 1.665
303.15 K, 101 kPa, x1 = 0.02 | 1.025
303.15 K, 101 kPa, x1 = 0.05 | 1.276
303.15 K, 101 kPa, x1 = 0.07 | 1.398
303.15 K, 101 kPa, x1 = 0.1001 | 1.514
303.15 K, 101 kPa, x1 = 0.1199 | 1.549
303.15 K, 101 kPa, x1 = 0.1499 | 1.558
303.15 K, 101 kPa, x1 = 0.1699 | 1.55
303.15 K, 101 kPa, x1 = 0.2 | 1.504
303.15 K, 101 kPa, x1 = 0.2199 | 1.466
303.15 K, 101 kPa, x1 = 0.25 | 1.395
303.15 K, 101 kPa, x1 = 0.2701 | 1.358
303.15 K, 101 kPa, x1 = 0.3002 | 1.281
303.15 K, 101 kPa, x1 = 0.3499 | 1.174
303.15 K, 101 kPa, x1 = 0.3999 | 1.056
303.15 K, 101 kPa, x1 = 0.4499 | 0.9408
303.15 K, 101 kPa, x1 = 0.5001 | 0.8597
303.15 K, 101 kPa, x1 = 0.5998 | 0.7127
303.15 K, 101 kPa, x1 = 0.7001 | 0.6034
303.15 K, 101 kPa, x1 = 0.8001 | 0.5252
303.15 K, 101 kPa, x1 = 0.9 | 0.4699
303.15 K, 101.33 kPa, x1 = 0.0971 | 1.444
303.15 K, 101.33 kPa, x1 = 0.1497 | 1.523
303.15 K, 101.33 kPa, x1 = 0.2011 | 1.477
303.15 K, 101.33 kPa, x1 = 0.3057 | 1.257
303.15 K, 101.33 kPa, x1 = 0.3979 | 1.04
303.15 K, 101.33 kPa, x1 = 0.4978 | 0.8602
303.15 K, 101.33 kPa, x1 = 0.6026 | 0.7189
303.15 K, 101.33 kPa, x1 = 0.7025 | 0.6137
303.15 K, 101.33 kPa, x1 = 0.8003 | 0.5413
303.15 K, 101.33 kPa, x1 = 0.8978 | 0.4813
308.15 K, 101 kPa, x1 = 0.02 | 0.9079
308.15 K, 101 kPa, x1 = 0.05 | 1.124
308.15 K, 101 kPa, x1 = 0.07 | 1.227
308.15 K, 101.33 kPa, x1 = 0.0971 | 1.256
308.15 K, 101.33 kPa, x1 = 0.1497 | 1.329
308.15 K, 101.33 kPa, x1 = 0.2011 | 1.301
308.15 K, 101.33 kPa, x1 = 0.3057 | 1.12
308.15 K, 101.33 kPa, x1 = 0.3979 | 0.9414
308.15 K, 101.33 kPa, x1 = 0.4978 | 0.7881
308.15 K, 101.33 kPa, x1 = 0.6026 | 0.6666
308.15 K, 101.33 kPa, x1 = 0.7025 | 0.5723
308.15 K, 101.33 kPa, x1 = 0.8003 | 0.5085
308.15 K, 101.33 kPa, x1 = 0.8978 | 0.4554
313.15 K, 101.33 kPa, x1 = 0.1497 | 1.171
313.15 K, 101.33 kPa, x1 = 0.2011 | 1.154
313.15 K, 101.33 kPa, x1 = 0.3057 | 1.01
313.15 K, 101.33 kPa, x1 = 0.3979 | 0.8555
313.15 K, 101.33 kPa, x1 = 0.4978 | 0.724
313.15 K, 101.33 kPa, x1 = 0.6026 | 0.6175
313.15 K, 101.33 kPa, x1 = 0.7025 | 0.5361
313.15 K, 101.33 kPa, x1 = 0.8003 | 0.4788
313.15 K, 101.33 kPa, x1 = 0.8978 | 0.4306
318.15 K, 101.33 kPa, x1 = 0.0971 | 0.9839
318.15 K, 101.33 kPa, x1 = 0.1497 | 1.041
318.15 K, 101.33 kPa, x1 = 0.2011 | 1.037
318.15 K, 101.33 kPa, x1 = 0.3057 | 0.9172
318.15 K, 101.33 kPa, x1 = 0.3979 | 0.7829
318.15 K, 101.33 kPa, x1 = 0.4978 | 0.6687
318.15 K, 101.33 kPa, x1 = 0.6026 | 0.576
318.15 K, 101.33 kPa, x1 = 0.7025 | 0.5036
318.15 K, 101.33 kPa, x1 = 0.8003 | 0.452
318.15 K, 101.33 kPa, x1 = 0.8978 | 0.4089
323.15 K, 101.33 kPa, x1 = 0.0971 | 0.8801
323.15 K, 101.33 kPa, x1 = 0.1497 | 0.9355
323.15 K, 101.33 kPa, x1 = 0.2011 | 0.9367
323.15 K, 101.33 kPa, x1 = 0.3057 | 0.8382
323.15 K, 101.33 kPa, x1 = 0.3979 | 0.7216
323.15 K, 101.33 kPa, x1 = 0.4978 | 0.621
323.15 K, 101.33 kPa, x1 = 0.6026 | 0.5365
323.15 K, 101.33 kPa, x1 = 0.7025 | 0.4716
323.15 K, 101.33 kPa, x1 = 0.8003 | 0.4277
323.15 K, 101.33 kPa, x1 = 0.8978 | 0.3879
